# Measurements: patent US20050267182A1, “Urea derivatives as FLT-3 modulators” (Ambit Biosciences Corporation, priority 2003, published 2005)
# Molecular target: T1, FLT3 (Homo sapiens, UniProt P36888)
# T1 construct: FLT3(DKIN); made in house
# T1 sequence (P36888 610-943 limits assumed): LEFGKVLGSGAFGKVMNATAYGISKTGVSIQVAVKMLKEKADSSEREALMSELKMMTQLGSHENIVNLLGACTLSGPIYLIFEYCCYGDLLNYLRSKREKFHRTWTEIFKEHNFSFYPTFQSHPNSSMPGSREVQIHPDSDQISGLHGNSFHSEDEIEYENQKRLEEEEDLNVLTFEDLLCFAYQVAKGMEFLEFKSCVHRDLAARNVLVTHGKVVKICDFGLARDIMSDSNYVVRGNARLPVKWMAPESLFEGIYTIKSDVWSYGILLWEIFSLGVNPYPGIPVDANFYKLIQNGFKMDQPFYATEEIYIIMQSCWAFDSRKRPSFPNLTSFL
# Experiment: Binding constant (Kd) measurement, phage-displayed kinase competition binding assay
# Settings: FLT3(DKIN) construct
# Source text: Binding Constant (Kd) Measurements for Small-Molecule-Kinase Interactions
# The term “ND” represents non-determined values.
SMILES,Binding Assay: FLT3(DKIN),Kd [µM]
Cc1ccc(NC(=O)Nc2cc(C(C)(C)C)on2)cc1 [Compound A33],+ + + +,–
CC(C)(C)c1cc(NC(=O)Nc2ccc(OC(F)(F)F)cc2)on1 [Compound A13],+ +,–
CSc1ccc(NC(=O)Nc2cc(C(C)(C)C)on2)cc1 [Compound A37],+ + + +,–
C[C@H](NC(=O)c1ccc(NC(=O)Nc2cc(C(C)(C)C)on2)cc1)c1ccccc1 [Compound N88],+ + +,–
CC(C)(C)c1cc(N2CCCN(c3ccc(OCc4ccccc4)cc3)C2=O)on1 [Compound E2],+ + +,–
CC(Oc1ccc(NC(=O)Nc2cc(C(C)(C)C)on2)cc1)c1ccccc1 (stereo not drawn) [Compound G17],+ + + +,–
Cc1ccc(CNc2ccc(NC(=O)Nc3cc(C(C)(C)C)on3)cc2)cc1 [Compound O9],+ + + +,–
CC(C)(C)c1cc(NC(=O)Nc2ccc(OCC(O)CO)cc2)no1 (stereo not drawn) [Compound G28],+ + + +,–
CC(C)(C)c1cc(NC(=O)Nc2ccc(-c3ccccc3)cc2)no1 [Compound A23],+ + + +,–
CC(C)(C)c1cc(NC(=O)Nc2ccc(Cl)cc2Cl)no1 [Compound A7],+ + +,–
Cc1ccc(-n2nc(C(C)(C)C)cc2NC(=O)Nc2ccc(OCc3ccccc3)cc2)cc1 [Compound H5],+ + + +,–
CC(C)(C)c1cc(NC(=O)Nc2ccc(O)cc2)no1 [Compound A31],+ + +,–
CC(C)(C)c1cc(NC(=O)Nc2cccc(Cl)c2)no1 [Compound A48],+ + +,–
Cc1ccc(NC(=O)Nc2cc(C(F)(F)F)cc(Cl)n2)cc1 [Compound W1],+ + + +,–
O=C(Nc1cccc(Cl)c1)Nc1cc(C(F)(F)F)cc(Cl)n1 [Compound Z74],+ + +,–
Cn1nc(C2CC2)cc1NC(=O)Nc1ccc(OCc2ccccc2)cc1 [Compound H7],+ +,–
CSc1ccc(NC(=O)Nc2cc(C(C)(C)C)no2)cc1 [Compound A39],+ + +,–
CC(C)(C)c1cc(NC(=O)Nc2ccc(F)cc2)no1 [Compound A47],+ + +,–
CC(C)(C)c1cc(NC(=O)Nc2ccc(Cl)cc2)no1 [Compound A27],+ + +,–
O=C(Nc1ccc(Cl)cc1)Nc1cc(C(F)(F)F)cc(Cl)n1 [Compound Z76],+ + +,–
CC(C)(C)c1cc(NC(=O)Nc2ccccc2)no1 [Compound A34],+ + +,–
O=C(Nc1ccc(Br)cc1)Nc1cc(C(F)(F)F)cc(Cl)n1 [Compound Z72],+ + +,–
CC(C)(C)c1cc(NC(=O)Nc2ccc(Cl)cc2)on1 [Compound A32],+ + +,–
Cc1ccc(-n2nc(C(C)(C)C)cc2NC(=O)Nc2cc(C(C)(C)C)on2)cc1 [Compound H11],+ + + +,–
C[S+]([O-])c1ccc(NC(=O)Nc2cc(C(C)(C)C)on2)cc1 (stereo not drawn) [Compound A46],+ + +,–

SMILES,Binding Assay: FLT3(DKIN),Kd [µM]
CC(C)(C)c1cc(NC(=O)Nc2ccc(OCCN3CCOCC3)c3ccccc23)no1 [Compound K1],+ + +,–
COc1ccc(N(C)C(=O)N(C)c2cc(C(C)(C)C)no2)cc1 [Compound J8],–,> 10
CC(C)(C)c1cc(NC(=O)Nc2ccc(NC(=O)Cc3ccc(OCc4ccccc4)cc3)cc2)no1 [Compound N98],+ + +,–
CC(C)(C)c1cc(NC(=O)Nc2ccc(NS(=O)(=O)c3ccccc3)cc2)no1 [Compound V1],+ +,–
CC(C)(C)c1cc(NC(=O)Nc2ccc(C(=O)NCc3ccccc3)cc2)no1 [Compound N89],+ + +,–
CC(C)c1ccc(NC(=O)Nc2cc(C(C)(C)C)on2)cc1 [Compound A25],+ +,–
Cc1cc(NC(=O)Nc2ccc(OCc3ccccc3)cc2)n(-c2ccccc2)n1 [Compound H4],+ + +,–
CC(C)c1ccc(NC(=O)Nc2cc(C(C)(C)C)no2)cc1 [Compound A11],+ +,–
CC(C)(C)c1cc(NC(=O)Nc2ccc(NC(=O)c3c(Cl)cccc3Cl)cc2)no1 [Compound N94],+ + + +,–
COc1ccc(NC(=O)Nc2cc(C(C)(C)C)on2)cc1 [Compound A29],+ + + +,–
CC(C)(C)c1cc(NC(=O)Nc2ccc(OC(F)F)cc2)no1 [Compound A12],+ +,–
COc1ccc(N(N)C(=O)Nc2cc(C(C)(C)C)on2)cc1 [Compound J14],+ + +,–
CCN(CC)CCNC(=O)c1ccc(NC(=O)Nc2cc(C(C)(C)C)on2)cc1 [Compound N102],–,> 10
CC(C)(C)c1cc(NC(=O)Nc2ccc(NC(=O)C3CCCCC3)cc2)no1 [Compound N91],+ + + +,–
COc1cccc(CNC(=O)Nc2cc(C(C)(C)C)on2)c1 [Compound B3],+ + + +,–
CC(C)(C)c1cc(NC(=O)Nc2cc(C(C)(C)C)on2)on1 [Compound A54],+ + +,–
C/C=C/C(=O)Nc1ccc(NC(=O)Nc2cc(C(C)(C)C)on2)cc1 [Compound N93],+ + +,–
CC(C)(C)c1cc(NC(=O)Nc2ccc(S(=O)(=O)Nc3ncccn3)cc2)no1 [Compound V3],–,> 10
O=C(Nc1ccc(Cl)cc1)Nc1ccc(-n2nc(Br)c(Br)c2Br)cc1 [Compound Z49],+ + +,–
CC(C)(C)c1cc(NC(=O)NN2CCCCC2)no1 [Compound Z57],+ + +,–
CC(C)(C)c1cc(NC(=O)Nc2ccccc2)no1 [Compound A2],+ + + +,–
CCOC(=O)NN(C(=O)Nc1cc(C(C)(C)C)on1)c1ccc(OC)cc1 [Compound J13],+ + +,–
CC(C)(C)c1cc(NC(=O)Nc2ccc(C(=O)O)cc2)no1 [Compound C2],+ +,–
CC(=O)NS(=O)(=O)c1ccc(NC(=O)Nc2cc(C(C)(C)C)on2)cc1 [Compound V4],–,> 10
"CC(C)(C)c1cc(NC(=O)Nc2ccc(Cl)c(C(F)(F)F)c2)no1 [Compound A1, 1-(5-tert-butylisoxazol-3-yl)-3-(4-chloro-3-(trifluoromethyl)phenyl)urea]",+ + +,–

SMILES,Binding Assay: FLT3(DKIN),Kd [µM]
COc1ccc(N2CCCN(c3cc(C(C)(C)C)no3)C2=O)cc1 [Compound E5],+ +,–
CCCCc1ccc(NC(=O)Nc2cc(C(C)(C)C)nn2C)cc1 [Compound D12],+ + +,–
Cn1nc(C(C)(C)C)cc1NC(=O)Nc1ccc(Cl)cc1 [Compound D11],+ + +,–
"CC(C)(C)c1cc(NC(=S)Nc2ccc(N3CCOCC3)cc2)no1 [Compound F1, 1-(5-tert-butylisoxazol-3-yl)-3-(4-morpholinophenyl)thiourea]",–,> 10
CC(C)(C)c1cc(NC(=O)Nc2ccc(Oc3ccccc3)cc2)no1 [Compound A24],+ + + +,–
CC(C)(C)c1cc(NC(=O)Nc2ccc(-c3nc(-c4ccc(C(F)(F)F)cc4)no3)cc2)no1 [Compound P8],+ + +,–
Cc1ccc(-n2nc(C(C)(C)C)cc2NC(=O)Nc2ccc(O)cc2)cc1 [Compound H12],+ + +,–
CC(C)(C)c1cc(NC(=O)Nc2ccc(C(=O)NCc3ccc4c(c3)OCO4)cc2)no1 [Compound N97],+ + +,–
O=C(Nc1ccc(Cl)cc1)Nc1cc(C2CC2)nn1-c1ccccc1 [Compound D10],+ + +,–
CC(C)(C)c1cc(NC(=O)Nc2ccc(C(=O)NCCO)cc2)no1 [Compound N87],+ + +,–
CC(C)(C)c1cc(NC(=O)Nc2ccc(C(N)=O)cc2)no1 [Compound N86],+ + + +,–
Cc1c(NC(=O)Nc2cc(C(C)(C)C)on2)c(=O)n(-c2ccccc2)n1C [Compound Z45],+ +,–
O=C(Nc1ccc(OCc2ccccc2)cc1)Nc1cc(C2CC2)nn1-c1ccccc1 [Compound H8],+ + +,–
Cc1ccc(-n2nc(C(C)(C)C)cc2NC(=O)Nc2ccc(Cl)cc2)cc1 [Compound H14],+ + + +,–
CC(C)(C)c1cc(NC(=O)Nc2ccc(NC(=O)c3c(F)cccc3C(F)(F)F)cc2)no1 [Compound N95],+ + +,–
COc1ccc(NC(=O)Nc2cc(C(C)(C)C)no2)cc1 [Compound A30],+ + + +,–
CC(C)(C)c1cc(NC(=O)Nc2ccc(CC(=O)O)cc2)no1 [Compound C3],+ +,–
CC(C)(C)c1cc(NC(=O)Nc2ccc(OCc3c(Cl)cccc3Cl)cc2)no1 [Compound G19],+ + + +,–
Cn1nc(C(C)(C)C)cc1NC(=O)Nc1ccc(F)cc1 [Compound Z19],+ + +,–
COc1ccc(NC(=O)Nc2cc(C(C)(C)C)nn2-c2ccc(C)cc2)cc1 [Compound H15],+ + + +,–
Cc1ccc(S(=O)(=O)Nc2ccc(NC(=O)Nc3cc(C(C)(C)C)on3)cc2)cc1 [Compound V2],+ +,–
O=C(Nc1ccc(Cl)cc1)Nc1cc(C2CC2)nn1-c1ccccc1 [Compound D2],+ + + +,–
CN1CN(c2ccc(OCc3ccccc3)cc2)C(=O)N(c2cc(C(C)(C)C)on2)C1 [Compound E4],+ + +,–
"Cc1ccc(-n2nc(C(C)(C)C)cc2NC(=O)Nc2ccc(C(C)C)cc2)cc1 [Compound D1, 1-(3-tert-butyl-1-p-tolyl-1H-pyrazol-5-yl)-3-(4-isopropylphenyl)urea]",+ +,–
COc1ccc(N(C)C(=O)Nc2cc(C(C)(C)C)on2)cc1 [Compound J10],+ + +,–
